The source of these data is patent US9018206B2, “Carboxamide compounds and their use as calpain inhibitors” (AbbVie Deutschland GmbH & Co. KG, priority 2009, dated 2015).

The structures appear in SMILES notation.

Format in all cases: biochemical
Assay [1] has as its target T1, calpain-I isolated from human erythrocytes (Homo sapiens, UniProt P07384).
T1 construct: calpain-I—isolated from human erythrocytes; purchased Calbiochem 208713; host or cells: human erythrocytes (tissue-derived)
T1 sequence (P07384 1-714): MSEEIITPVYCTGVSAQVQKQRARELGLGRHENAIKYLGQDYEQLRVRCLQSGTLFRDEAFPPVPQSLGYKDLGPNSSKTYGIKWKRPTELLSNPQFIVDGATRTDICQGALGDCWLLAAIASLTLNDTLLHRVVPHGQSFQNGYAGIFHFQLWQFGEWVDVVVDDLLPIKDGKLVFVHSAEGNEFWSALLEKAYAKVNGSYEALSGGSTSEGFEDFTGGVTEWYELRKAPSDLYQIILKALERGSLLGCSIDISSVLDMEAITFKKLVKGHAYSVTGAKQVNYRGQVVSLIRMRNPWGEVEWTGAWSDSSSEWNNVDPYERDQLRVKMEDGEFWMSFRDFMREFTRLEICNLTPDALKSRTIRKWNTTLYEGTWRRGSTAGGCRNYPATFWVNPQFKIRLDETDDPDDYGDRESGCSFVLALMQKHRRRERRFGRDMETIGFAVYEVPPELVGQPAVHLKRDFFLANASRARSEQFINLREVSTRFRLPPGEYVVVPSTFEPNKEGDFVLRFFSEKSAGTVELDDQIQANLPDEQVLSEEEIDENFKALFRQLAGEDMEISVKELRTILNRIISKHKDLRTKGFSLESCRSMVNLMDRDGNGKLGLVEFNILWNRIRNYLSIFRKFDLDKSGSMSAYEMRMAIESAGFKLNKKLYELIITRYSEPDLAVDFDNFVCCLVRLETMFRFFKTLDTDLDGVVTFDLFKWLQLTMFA
T1 sequence (P04632 1-268 partner): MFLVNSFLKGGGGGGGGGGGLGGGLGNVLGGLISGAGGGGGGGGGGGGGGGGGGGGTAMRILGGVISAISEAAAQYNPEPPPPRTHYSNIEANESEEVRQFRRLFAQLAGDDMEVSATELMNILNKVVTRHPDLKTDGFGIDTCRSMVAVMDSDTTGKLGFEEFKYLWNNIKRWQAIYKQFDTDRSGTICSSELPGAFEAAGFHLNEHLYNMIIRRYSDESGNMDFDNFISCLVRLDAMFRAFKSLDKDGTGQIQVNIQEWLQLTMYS
Description: Calpain I enzyme inhibition in vitro (kinetic fluorescence assay). The conditions noted are these: apparent Ki from IC50 (Cheng-Prussoff); 20 nM calpain-I, 100 μM Suc-Leu-Tyr-AMC, pH 7.3, room temperature. As for the experimental part: (§1) Testing for blockade of the corresponding enzymic activities was carried out by means of kinetic fluorescence assays (excitation 390 nm, emission 460 nm).
(§2) Apparent Ki values were calculated from the experimentally determined IC50 values by the Cheng-Prussoff relation assuming a reversible competitive enzyme inhibition. The Km values of the substrates used under the assay conditions indicated above were: 90 μM (Z-Phe-Arg-AMC, cathepsin B), 10 μM (Z-Gly-Pro-Arg-AMC, cathepsin K), 2 μM (Z-Phe-Arg-AMC, cathepsin L), and 30 μM (Z-Val-Val-Arg-AMC, cathepsin S).
(§3) The indicated Ki values are averages of the inhibition constants calculated on the basis of 2 to 4 independent dose-effect plots.
(§4) • 20 nM calpain-I—isolated from human erythrocytes (Calbiochem #208713), 100 μM Suc-Leu-Tyr-AMC (Bachem #I-1355) as substrate in buffer with 62 mM imidazole, 0.3 mM CaCl2, 0.10% CHAPS, 0.05% BSA, 1 mM DTT at pH 7.3 and room temperature. 1. Cathepsin B: • 0.25 nM cathepsin B—isolated from human liver (Calbiochem #219362), 100 μM Z-Phe-Arg-AMC (Bachem #I-1160) as substrate 50 mM MES, 2 mM EDTA, 0.05% Brij 35, 2.5 mM L-cysteine, pH 6.0, room temperature. 3. Cathepsin K: • 3 nM cathepsin K activated from recombinant human procathepsin K from E. coli (Calbiochem #342001), 10 μM Z-Gly-Pro-Arg-AMC (Biomol #P-142) as substrate in 50 mM MES, 2 mM EDTA, 0.05% Brij 35, 2.5 mM L-cysteine, pH 6.0, room temperature. 4. Cathepsin L: • 1 nM cathepsin L—isolated from human liver (Calbiochem #219402), 2 μM Z-Phe-Arg-AMC (Bachem #I-1160) as substrate in 50 mM MES, 2 mM EDTA, 0.05% Brij 35, 2.5 mM L-cysteine, pH 6.0, room temperature. 5. Cathepsin S: • 0.5 nM recombinant human cathepsin S from E. coli (Calbiochem #219343), 20 μM Z-Val-Val-Arg-AMC (Bachem #I-1540) as substrate in 50 mM MES, 2 mM EDTA, 0.05% Brij 35, 2.5 mM L-cysteine, pH 6.0, room temperature.

For assay [2], the target named is T2, cathepsin L isolated from human liver (Homo sapiens, UniProt P07711).
T2 construct: cathepsin L—isolated from human liver; purchased Calbiochem 219402; host or cells: human liver (tissue-derived)
Briefly: Cathepsin L enzyme inhibition in vitro (kinetic fluorescence assay). The conditions noted are these: Ki(cathepsin L)/Ki(calpain) ratio. On the procedure: as §1, §2, §3, §4

In assay [3] the target is T3, cathepsin B isolated from human liver (Homo sapiens, UniProt P07858).
T3 construct: cathepsin B—isolated from human liver; purchased Calbiochem 219362; host or cells: human liver (tissue-derived)
Briefly: Cathepsin B enzyme inhibition in vitro (kinetic fluorescence assay). The conditions noted are these: Ki(cathepsin B)/Ki(calpain) ratio. On the procedure: as §1, §2, §3, §4

Assay [4] addresses T4, recombinant human cathepsin S (Homo sapiens, UniProt P25774).
T4 construct: purchased Calbiochem 219343; host or cells: E. coli
Description: Cathepsin S enzyme inhibition in vitro (kinetic fluorescence assay). The conditions noted are these: Ki(cathepsin S)/Ki(calpain) ratio. On the procedure: as §1, §2, §3, §4

The target in assay [5] is T5, cathepsin K activated from recombinant human procathepsin K (Homo sapiens, UniProt P43235).
T5 construct: purchased Calbiochem 342001; host or cells: E. coli
T5 sequence (P43235 115-329): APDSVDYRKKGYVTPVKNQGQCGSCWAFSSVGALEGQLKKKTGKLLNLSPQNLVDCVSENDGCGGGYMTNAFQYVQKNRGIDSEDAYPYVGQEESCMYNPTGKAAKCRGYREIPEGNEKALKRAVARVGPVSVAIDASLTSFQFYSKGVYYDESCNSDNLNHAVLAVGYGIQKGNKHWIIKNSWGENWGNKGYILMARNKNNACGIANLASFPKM
Briefly: Cathepsin K enzyme inhibition in vitro (kinetic fluorescence assay). The conditions noted are these: Ki(cathepsin K)/Ki(calpain) ratio. As for the experimental part: as §1, §2, §3, §4

T2 sequence (P07711 114-333): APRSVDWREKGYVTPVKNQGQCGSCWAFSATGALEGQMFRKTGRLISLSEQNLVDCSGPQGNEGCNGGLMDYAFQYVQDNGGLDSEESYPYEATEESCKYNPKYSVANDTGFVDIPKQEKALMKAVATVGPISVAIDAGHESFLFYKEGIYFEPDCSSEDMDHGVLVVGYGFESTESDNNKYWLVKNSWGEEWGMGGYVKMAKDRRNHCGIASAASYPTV
T4 sequence (P25774 115-331): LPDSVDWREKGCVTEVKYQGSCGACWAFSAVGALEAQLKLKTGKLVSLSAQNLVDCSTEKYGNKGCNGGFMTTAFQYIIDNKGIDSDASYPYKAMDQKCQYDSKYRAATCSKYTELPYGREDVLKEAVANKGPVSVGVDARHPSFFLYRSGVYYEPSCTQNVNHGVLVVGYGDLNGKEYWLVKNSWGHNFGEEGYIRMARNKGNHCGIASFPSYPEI

In the case of `O=C(NC1CC1)C(=O)C(Cc1ccccc1)NC(=O)[C@H]1CCC(=O)N1Cc1c(F)cccc1F` (mixture of isomers) [Example 48, (2R)—N-(4-(Cyclopropylamino)-3,4-dioxo-1-phenylbutan-2-yl)-1-(2,6-difluorobenzyl)-5-oxopyrrolidine-2-carboxamide], in assay [1], the Ki is 100 to 600 nM. In addition, in assay [2], the “Sel cat. L” value is “++ (10<Ki(cathepsin B)/Ki(calpain)≦30)”. In addition, in assay [3], the “Sel cat. B” value was “+++ (Ki(cathepsin B)/Ki(calpain) ratio of >30)”.

Turning to `CCNC(=O)C(=O)C(Cc1ccccc1)NC(=O)[C@H]1CCC(=O)N1Cc1c(F)cccc1F` (mixture of isomers) [Example 49, (2R)-1-(2,6-Difluorobenzyl)-N-(4-(ethylamino)-3,4-dioxo-1-phenylbutan-2-yl)-5-oxopyrrolidine-2-carboxamide], the Ki in assay [1] was 100 to 600 nM. Besides, the “Sel cat. L” value in assay [2] is “++ (10<Ki(cathepsin B)/Ki(calpain)≦30)”. In addition, in assay [3], the “Sel cat. B” value is “+++ (Ki(cathepsin B)/Ki(calpain) ratio of >30)”.

For `O=C(NC1CCCCC1)C(=O)C(Cc1ccccc1)NC(=O)[C@H]1CCC(=O)N1Cc1ccccc1` (mixture of isomers) [Example 56, (2R)-1-Benzyl-N-(4-(cyclohexylamino)-3,4-dioxo-1-phenylbutan-2-yl)-5-oxopyrrolidine-2-carboxamide], the “Sel cat. S” value in assay [4] is given as “++ (30<Ki(cathepsin B)/Ki(calpain)≦100)”. Besides, the Ki in assay [1] lay within 50 to 100 nM. Further, the “Sel cat. K” value in assay [5] is given as “+ (5<Ki(cathepsin K)/Ki(calpain)≦10)”. Besides, in assay [3], the “Sel cat. B” value is listed as “++ (10<Ki(cathepsin B)/Ki(calpain)≦30)”.

For `O=C(NNC(=O)c1ccccc1)C(=O)C(Cc1ccccc1)NC(=O)[C@H]1CCC(=O)N1Cc1ccccc1` (mixture of isomers) [Example 57, (2R)—N-(4-(2-Benzoylhydrazinyl)-3,4-dioxo-1-phenylbutan-2-yl)-1-benzyl-5-oxopyrrolidine-2-carboxamide], the “Sel cat. S” value in assay [4] is listed as “+++ (Ki(cathepsin S)/Ki(calpain) ratio of >100)”. Besides, in assay [1], the Ki was 50 to 100 nM. Besides, in assay [5], the “Sel cat. K” value was “++ (10<Ki(cathepsin B)/Ki(calpain)≦30)”. The “Sel cat. B” value in assay [3] is on record as “+ (5<Ki(cathepsin B)/Ki(calpain)≦10)”.

As to `O=C(NC1CC1)C(=O)C(Cc1ccccc1)NC(=O)[C@H]1CCC(=O)N1Cc1ccc(C(F)(F)F)cc1` (mixture of isomers) [Example 58, (2R)—N-(4-(Cyclopropylamino)-3,4-dioxo-1-phenylbutan-2-yl)-5-oxo-1-(4-(trifluoromethyl)benzyl)pyrrolidine-2-carboxamide], in assay [4], the “Sel cat. S” value is on record as “++ (30<Ki(cathepsin B)/Ki(calpain)≦100)”. Besides, in assay [1], the Ki was in the range of 100 to 600 nM. For the same compound, in assay [5], the “Sel cat. K” value is “+ (5<Ki(cathepsin K)/Ki(calpain)≦10)”. Also, the “Sel cat. B” value in assay [3] is “+ (5<Ki(cathepsin B)/Ki(calpain)≦10)”.

Turning to `NC(=O)C(=O)C(Cc1ccccc1)NC(=O)[C@@H]1CCC(=O)N1Cc1ccccc1` (stereo partly drawn) [Example 2, (2S)—N-(4-Amino-3,4-dioxo-1-phenylbutan-2-yl)-1-benzyl-5-oxopyrrolidine-2-carboxamide], the Ki in assay [1] was 100 to 600 nM. Further, the “Sel cat. K” value in assay [5] is recorded as “++ (10<Ki(cathepsin B)/Ki(calpain)≦30)”. For the same compound, in assay [2], the “Sel cat. L” value is on record as “+ (5<Ki(cathepsin L)/Ki(calpain)≦10)”.

For `COc1cccc(CN2C(=O)CC[C@@H]2C(=O)NC(Cc2ccccc2)C(=O)C(N)=O)c1` (stereo partly drawn) [Example 6, (2R)—N-(4-Amino-3,4-dioxo-1-phenylbutan-2-yl)-1-(3-methoxybenzyl)-5-oxopyrrolidine-2-carboxamide], in assay [4], the “Sel cat. S” value is recorded as “++ (30<Ki(cathepsin B)/Ki(calpain)≦100)”. For the same compound, the Ki in assay [1] is under 50 nM. The “Sel cat. K” value in assay [5] was “+++ (Ki(cathepsin K)/Ki(calpain) ratio of >30)”. Moreover, the “Sel cat. B” value in assay [3] is reported as “+ (5<Ki(cathepsin B)/Ki(calpain)≦10)”.

For `NC(=O)C(=O)C(Cc1ccccc1)NC(=O)C1CCS(=O)(=O)N1Cc1ccccc1` (stereo not drawn) [Example 10, N-(4-Amino-3,4-dioxo-1-phenylbutan-2-yl)-2-benzylisothiazolidine-3-carboxamide 1,1-dioxide], the Ki in assay [1] is under 50 nM. For the same compound, the “Sel cat. L” value in assay [2] is “++ (10<Ki(cathepsin B)/Ki(calpain)≦30)”. Further, the “Sel cat. B” value in assay [3] was “+++ (Ki(cathepsin B)/Ki(calpain) ratio of >30)”.

Consider `NC(=O)C(=O)C(Cc1ccccc1)NC(=O)[C@H]1CCC(=O)N1Cc1cccc2ccccc12` (stereo partly drawn) [Example 11, (2R)—N-(4-Amino-3,4-dioxo-1-phenylbutan-2-yl)-1-(naphthalen-1-ylmethyl)-5-oxopyrrolidine-2-carboxamide], for which the “Sel cat. S” value in assay [4] is “++ (30<Ki(cathepsin B)/Ki(calpain)≦100)”. In addition, in assay [1], the Ki is under 50 nM. Moreover, in assay [5], the “Sel cat. K” value is reported as “+++ (Ki(cathepsin K)/Ki(calpain) ratio of >30)”. Also, the “Sel cat. B” value in assay [3] was “++ (10<Ki(cathepsin B)/Ki(calpain)≦30)”.

For the compound `NC(=O)C(=O)C(Cc1ccccc1)NC(=O)[C@H]1CCC(=O)N1Cc1cccc(OC(F)(F)F)c1` (stereo partly drawn) [Example 13, (2R)—N-(4-Amino-3,4-dioxo-1-phenylbutan-2-yl)-5-oxo-1-[3-(trifluoromethoxy)-benzyl]pyrrolidine-2-carboxamide], in assay [4], the “Sel cat. S” value was “++ (30<Ki(cathepsin B)/Ki(calpain)≦100)”. For the same compound, the Ki in assay [1] is 100 to 600 nM. Besides, in assay [5], the “Sel cat. K” value is on record as “+++ (Ki(cathepsin K)/Ki(calpain) ratio of >30)”. For the same compound, in assay [3], the “Sel cat. B” value is listed as “+ (5<Ki(cathepsin B)/Ki(calpain)≦10)”.

On to `C[C@H]1C[C@H](C(=O)NC(Cc2ccccc2)C(=O)C(N)=O)N(Cc2ccccc2)C1=O` (stereo partly drawn) [Example 19, (2R,4S)—N-(4-Amino-3,4-dioxo-1-phenylbutan-2-yl)-1-benzyl-4-methyl-5-oxopyrrolidine-2-carboxamide], for which, in assay [1], the Ki was under 50 nM. For the same compound, the “Sel cat. L” value in assay [2] was “++ (10<Ki(cathepsin B)/Ki(calpain)≦30)”. Further, in assay [3], the “Sel cat. B” value was “++ (10<Ki(cathepsin B)/Ki(calpain)≦30)”.
